Source: ChEMBL document CHEMBL1201862, “PubChem BioAssay data set” (2004)
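Cells were grown in 96-well plates and exposed to each compound for 48 hours at five concentrations; endpoints were interpolated linearly between bracketing concentrations, or set to the highest concentration if not reached. GI50 = concentration required for 50% inhibition of growth.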 Calls of active or inactive are those of the source. No stated cut-off is given here; in the data, active = GI50 up to about 1.1 µM and inactive = higher.

What was measured:
Experiment in all cases: growth of human tumour cells (NCI), 48 h
SK-OV-3 = tested on: SK-OV-3
HOP-92 = tested on: HOP-92
UACC-257 = tested on: UACC-257
NCI-H23 = tested on: NCI-H23
RXF 393 = tested on: RXF 393
K562 = tested on: K562
M14 = tested on: M14
U-251 = tested on: U-251
786-0 = tested on: 786-0
SK-MEL-5 = tested on: SK-MEL-5
TK-10 = tested on: TK-10
SW-620 = tested on: SW-620
NCI-H522 = tested on: NCI-H522
SK-MEL-28 = tested on: SK-MEL-28
IGROV-1 = tested on: IGROV-1
OVCAR-3 = tested on: OVCAR-3
LOX IMVI = tested on: LOX IMVI

Measured: GI50

COc1ccc([C@H]2CC(=O)N3CCCC3N2)cc1 (some centres undefined)
inactive: SK-OV-3 > 100 µM | HOP-92 > 100 µM | UACC-257 > 100 µM | NCI-H23 > 100 µM | RXF 393 > 100 µM | K562 > 100 µM | M14 > 100 µM | U-251 > 100 µM | 786-0 > 100 µM | SK-MEL-5 > 100 µM | TK-10 > 100 µM | SW-620 > 100 µM | NCI-H522 > 100 µM | SK-MEL-28 > 100 µM | IGROV-1 > 100 µM

N/C(=N\N=C=C1C(=O)Nc2ccc(F)cc21)NO
inactive: SK-OV-3 59.2 µM | HOP-92 65.3 µM | OVCAR-3 > 100 µM | UACC-257 > 100 µM | NCI-H23 > 100 µM | RXF 393 > 100 µM | LOX IMVI > 100 µM | K562 95.9 µM | M14 > 100 µM | U-251 > 100 µM | 786-0 > 100 µM | SK-MEL-5 > 100 µM | TK-10 > 100 µM | SW-620 > 100 µM | NCI-H522 86.1 µM | SK-MEL-28 > 100 µM | IGROV-1 > 100 µM

CCOC(=O)C1S/C(=N\c2ccc(Cl)c(Cl)c2)N=C1C (centres undefined)
inactive: SK-OV-3 53.8 µM | OVCAR-3 17.9 µM | UACC-257 87.1 µM | NCI-H23 36.7 µM | RXF 393 13 µM | LOX IMVI 23.4 µM | K562 13.4 µM | M14 34.6 µM | U-251 48.3 µM | 786-0 17.5 µM | TK-10 76.7 µM | SW-620 38 µM | NCI-H522 24.7 µM | SK-MEL-28 73.8 µM | IGROV-1 48.8 µM

Brc1ccc2c(c1)C1(c3cc(Br)ccc3-2)c2cc(Br)ccc2-c2ccc(Br)cc21
inactive: SK-OV-3 > 100 µM | OVCAR-3 > 100 µM | UACC-257 > 100 µM | NCI-H23 > 100 µM | RXF 393 > 100 µM | LOX IMVI > 100 µM | K562 > 100 µM | M14 > 100 µM | U-251 > 100 µM | 786-0 > 100 µM | TK-10 > 100 µM | SW-620 > 100 µM | NCI-H522 > 100 µM | SK-MEL-28 > 100 µM | IGROV-1 > 100 µM

Cn1cnc([N+](=O)[O-])c1Sc1nc2cccnc2[nH]1
inactive: SK-OV-3 > 100 µM | HOP-92 83 µM | OVCAR-3 > 100 µM | UACC-257 91.2 µM | NCI-H23 88.7 µM | RXF 393 97.5 µM | LOX IMVI 79.8 µM | K562 22.8 µM | M14 > 100 µM | U-251 > 100 µM | 786-0 > 100 µM | SK-MEL-5 > 100 µM | TK-10 55.6 µM | SW-620 49.9 µM | SK-MEL-28 62.5 µM | IGROV-1 71.4 µM

Cc1nn2c(=O)n(-c3cccc(-n4nnc5c(-c6ccccc6)c(C)nn5c4=O)c3C)nnc2c1-c1ccccc1
inactive: SK-OV-3 > 100 µM | HOP-92 55.5 µM | OVCAR-3 6.95 µM | UACC-257 22.4 µM | NCI-H23 98.4 µM | RXF 393 34.6 µM | LOX IMVI 27.7 µM | K562 20.1 µM | M14 15.2 µM | U-251 25.2 µM | 786-0 94.4 µM | SK-MEL-5 16.6 µM | TK-10 47.9 µM | SW-620 20.6 µM | NCI-H522 15.5 µM | IGROV-1 22.4 µM

Cc1cc2nc3c(C#N)c(-c4ccccc4)cc(Nc4ccc(F)cc4)n3c2cc1C
inactive: SK-OV-3 16.7 µM | HOP-92 5.01 µM | OVCAR-3 12.2 µM | UACC-257 7.5 µM | NCI-H23 13.4 µM | RXF 393 14.4 µM | LOX IMVI 13.4 µM | U-251 4.33 µM | 786-0 8.49 µM | SK-MEL-5 16 µM | TK-10 12.4 µM | SW-620 55.5 µM | NCI-H522 4.33 µM | SK-MEL-28 46.2 µM

C[N+](C)=c1nc(N2CCc3ccccc3C2)ss1.[O-][Cl+3]([O-])([O-])[O-]
inactive: SK-OV-3 > 100 µM | OVCAR-3 82 µM | UACC-257 > 100 µM | RXF 393 77.4 µM | K562 > 100 µM | M14 > 100 µM | U-251 > 100 µM | 786-0 > 100 µM | SK-MEL-5 > 100 µM | TK-10 > 100 µM | SW-620 > 100 µM | NCI-H522 > 100 µM | SK-MEL-28 > 100 µM | IGROV-1 > 100 µM

O=C(O)CCSC(=O)Nc1cccc2ccccc12
inactive: SK-OV-3 > 100 µM | HOP-92 > 100 µM | OVCAR-3 > 100 µM | UACC-257 > 100 µM | NCI-H23 > 100 µM | RXF 393 > 100 µM | LOX IMVI > 100 µM | K562 > 100 µM | M14 > 100 µM | U-251 > 100 µM | 786-0 > 100 µM | SK-MEL-5 > 100 µM | TK-10 > 100 µM | SW-620 > 100 µM | SK-MEL-28 > 100 µM | IGROV-1 > 100 µM

CC1CCC(O)C(C(O)CC2CC(=O)N(C)C(=O)C2)C1 (centres undefined)
inactive: SK-OV-3 > 100 µM | HOP-92 > 100 µM | OVCAR-3 > 100 µM | UACC-257 > 100 µM | NCI-H23 > 100 µM | RXF 393 > 100 µM | LOX IMVI > 100 µM | K562 > 100 µM | M14 > 100 µM | U-251 > 100 µM | 786-0 > 100 µM | TK-10 > 100 µM | SW-620 > 100 µM | NCI-H522 > 100 µM | SK-MEL-28 > 100 µM | IGROV-1 > 100 µM

C=C(C)C1CCC2(C)CC1c1c(c(C)cc3c1[nH]c1ccccc13)O2 (centres undefined)
inactive: SK-OV-3 > 25 µM | HOP-92 > 25 µM | OVCAR-3 > 25 µM | LOX IMVI > 25 µM | K562 12 µM | M14 > 25 µM | U-251 > 25 µM | 786-0 > 25 µM | SK-MEL-5 > 25 µM | SW-620 > 25 µM | NCI-H522 15 µM | SK-MEL-28 > 25 µM | IGROV-1 > 25 µM

C/C(CN1C(=O)c2ccccc2C1=O)=N\NS(C)(=O)=O
inactive: SK-OV-3 > 100 µM | OVCAR-3 > 100 µM | UACC-257 > 100 µM | NCI-H23 > 100 µM | RXF 393 > 100 µM | K562 > 100 µM | M14 > 100 µM | U-251 > 100 µM | 786-0 > 100 µM | SK-MEL-5 > 100 µM | TK-10 > 100 µM | SW-620 > 100 µM | NCI-H522 > 100 µM | SK-MEL-28 > 100 µM | IGROV-1 > 100 µM

CCOC(=O)C(C)(c1c(C)[nH]c2ccccc12)c1c(C)[nH]c2ccccc12
inactive: SK-OV-3 26 µM | OVCAR-3 16 µM | UACC-257 14.8 µM | NCI-H23 17.1 µM | RXF 393 12.9 µM | K562 8.36 µM | M14 14.4 µM | U-251 16.9 µM | 786-0 19.1 µM | SK-MEL-5 15.7 µM | TK-10 18.7 µM | SW-620 16.9 µM | SK-MEL-28 15.3 µM | IGROV-1 20.6 µM

CCO/C=C\C12CCCC1NC(c1ccccc1)(c1ccccc1)O2 (centres undefined)
inactive: SK-OV-3 40.4 µM | HOP-92 24 µM | OVCAR-3 27.9 µM | UACC-257 27.5 µM | NCI-H23 28.4 µM | RXF 393 31 µM | K562 20.1 µM | M14 22.5 µM | U-251 33.3 µM | 786-0 32.7 µM | SK-MEL-5 17.1 µM | TK-10 31.5 µM | SW-620 38.4 µM | NCI-H522 33.7 µM | SK-MEL-28 40.5 µM | IGROV-1 28 µM

C=CCC1([C@H](C)[C@@H](OC(C)=O)c2cc(OC)c(OC)c(OC)c2)C[C@@H](OC)CCC1=O (some centres undefined)
inactive: SK-OV-3 59.4 µM | HOP-92 23 µM | OVCAR-3 20.7 µM | UACC-257 > 10 µM | NCI-H23 9.59 µM | RXF 393 12.9 µM | K562 16.4 µM | M14 15.6 µM | U-251 13.8 µM | 786-0 11.7 µM | SK-MEL-5 > 100 µM | TK-10 51.3 µM | SW-620 13.7 µM | NCI-H522 11.1 µM | SK-MEL-28 23.6 µM | IGROV-1 19.1 µM

O=C(Cc1ccccc1)NN1C(=O)C(Cl)C1c1ccc(O)cc1 (centres undefined)
inactive: SK-OV-3 > 100 µM | OVCAR-3 > 100 µM | UACC-257 > 100 µM | NCI-H23 > 100 µM | RXF 393 > 100 µM | LOX IMVI > 100 µM | K562 > 100 µM | M14 > 100 µM | U-251 > 100 µM | 786-0 > 100 µM | SK-MEL-5 > 100 µM | TK-10 > 100 µM | SW-620 > 100 µM | NCI-H522 > 100 µM | SK-MEL-28 > 100 µM | IGROV-1 > 100 µM

COc1ccc(/C=C\c2cc(OC)c(OC(C)=O)c(OC)c2)cc1
inactive: SK-OV-3 51.8 µM | HOP-92 19.1 µM | OVCAR-3 20.8 µM | UACC-257 17.3 µM | NCI-H23 13.3 µM | K562 2.03 µM | M14 18.2 µM | U-251 4.21 µM | 786-0 14.9 µM | SK-MEL-5 5.55 µM | SW-620 11.1 µM | NCI-H522 15.5 µM | SK-MEL-28 3.43 µM | IGROV-1 29.7 µM

COC(=O)N1[C@H]2Cc3c(OC)c(C)c(OC)c(OC)c3[C@@H]1/C(=C\c1cc(OC)c(OC)c(C)c1OC)N(Cc1ccccc1)C2=O
inactive: SK-OV-3 57.3 µM | HOP-92 7.96 µM | OVCAR-3 32.7 µM | UACC-257 23 µM | NCI-H23 75 µM | RXF 393 > 100 µM | LOX IMVI 30.5 µM | K562 26.2 µM | M14 29.7 µM | U-251 27.9 µM | 786-0 54 µM | SK-MEL-5 21.8 µM | TK-10 33.3 µM | NCI-H522 5.7 µM | SK-MEL-28 > 100 µM | IGROV-1 95.3 µM
